In brackets after ≈: the same amount, converted by molar mass. Several values for one entry are separate records, joined by “and”; a condition that tells them apart may be missing. Identical values can stand only once. Each block holds one compound with its values, some of them ahead of it.
Experiments:
Experiment in all cases: ≥ marks a high value that may be exact or a test limit, other limits are often not marked, values filed in µg/mL are converted to µM
Vibrio alginolyticus = tested on: Vibrio alginolyticus
[1] = tested on: Micrococcus luteus BCRC 11034
[2] = tested on: Streptococcus pneumoniae BCRC 10794
Streptococcus agalactiae = tested on: Streptococcus agalactiae
[3] = tested on: Staphylococcus sp. BCRC 10451
[4] = tested on: Vibrio harveyi BCRC 13812
Vibrio vulnificus 204 = tested on: Vibrio vulnificus 204
[5] = tested on: Staphylococcus aureus BCRC 10780
[6] = tested on: Escherichia coli ATCC 35218
[7] = tested on: Staphylococcus aureus ATCC 25325
[8] = tested on: Pseudomonas aeruginosa ATCC 27853
[9] = tested on: Enterococcus faecalis ATCC 29212
[10] = tested on: Pseudomonas syringae pv. syringae DSM 10604
[11] = tested on: Pectobacterium carotovorum subsp. carotovorum DSM 30168
[12] = tested on: Pseudomonas corrugata DSM 7228
[13] = tested on: Xanthomonas vesicatoria DSM 50861
[14] = tested on: Pseudomonas syringae pv. tomato DC3000
[15] = tested on: Clavibacter michiganensis subsp. michiganensis DSM 46294
[16] = tested on: Pseudomonas aeruginosa PAO1
[17] = tested on: Escherichia coli ATCC 25922
[18] = tested on: Pseudomonas aeruginosa 919
[19] = tested on: Pseudomonas aeruginosa 910
[20] = tested on: Staphylococcus epidermidis PIA 8400
[21] = tested on: Staphylococcus aureus ATCC 29213
Staphylococcus aureus = tested on: Staphylococcus aureus
Staphylococcus aureus MR = tested on: Staphylococcus aureus MR
[22] = tested on: Pseudomonas aeruginosa 253
[23] = tested on: Neisseria gonorrhoeae F62
[24] = tested on: Neisseria gonorrhoeae FA19
[25] = tested on: Candida glabrata ATCC 90030
[26] = tested on: Cryptococcus neoformans CN2
[27] = tested on: Streptococcus sanguinis ATCC 49295
[28] = tested on: Cryptococcus neoformans ATCC 52817
[29] = tested on: Saccharomyces cerevisiae S288C
[30] = tested on: Streptococcus mutans UA159
[31] = tested on: Streptococcus gordonii ATCC 10558
[32] = tested on: Candida albicans ATCC 96112
[33] = tested on: Streptococcus mutans GS-5
Candida glabrata 65C = tested on: Candida glabrata 65C

Structure (SMILES): CC(C)[C@H](NC(=O)[C@H](Cc1cnc[nH]1)NC(=O)[C@H](C)NC(=O)[C@H](C)NC(=O)[C@H](CCCCN)NC(=O)[C@@H](N)CCCCN)C(=O)NCC(=O)N[C@@H](CCCCN)C(=O)N[C@@H](Cc1cnc[nH]1)C(=O)N[C@H](C(=O)NCC(=O)N[C@@H](CCCCN)C(=O)N[C@@H](C)C(=O)N[C@@H](C)C(=O)N[C@@H](CCCCN)C(=O)N[C@@H](CCCCN)C(=O)O)C(C)C [KKAAHVGKHVGKAAKK]
- MIC [6]: ≥ 56.1 µM
- MIC [7]: ≥ 56.3 µM
- MIC [8]: 52 µM (≈ 86.2 µg/mL)
- MIC [9]: 47.2 µM (≈ 78.3 µg/mL)

Structure (SMILES): CC[C@H](C)[C@H](NC(=O)[C@H](CC(C)C)NC(=O)[C@H](CCCN=C(N)N)NC(=O)[C@H](CCCN=C(N)N)NC(=O)[C@@H](N)CCCCN)C(=O)N[C@@H](Cc1ccccc1)C(=O)N[C@@H](CCCN=C(N)N)C(=O)N[C@H](C(=O)N[C@@H](CC(C)C)C(=O)N[C@@H](CCCCN)C(=O)N[C@@H](CC(C)C)C(=O)N[C@@H](Cc1ccccc1)C(=O)N[C@@H](Cc1ccccc1)C(=O)N[C@@H](CCCN=C(N)N)C(=O)N[C@@H](Cc1ccccc1)C(=O)N[C@@H](CC(C)C)C(=O)N[C@H](C(=O)N[C@@H](CCCCN)C(=O)N[C@@H](CCCCN)C(=O)N[C@@H](CCCN=C(N)N)C(N)=O)C(C)C)[C@@H](C)CC [KRRLIFRILKLFFRFLVKKR]
- MIC [10]: 3.73 µM (≈ 10 µg/mL)
- MIC [11]: 3.73 µM (≈ 10 µg/mL)
- MIC [12]: 1.87 µM (≈ 5 µg/mL)
- MIC [13]: 0.933 µM (≈ 2.5 µg/mL)
- MIC [14]: 3.73 µM (≈ 10 µg/mL)
- MIC [15]: 0.373 µM (≈ 1 µg/mL)

Structure (SMILES): CC[C@H](C)[C@H](NC(=O)[C@H](CCCN=C(N)N)NC(=O)[C@H](Cc1c[nH]c2ccccc12)NC(=O)[C@H](CCCN=C(N)N)NC(=O)[C@H](CCCN=C(N)N)NC(=O)[C@@H](N)CCCCN)C(=O)N[C@@H](Cc1c[nH]c2ccccc12)C(=O)N[C@@H](CC(C)C)C(=O)N[C@H](C(N)=O)C(C)C [KRRWRIWLV]
- MIC [16]: 4 µM (≈ 5.25 µg/mL)
- MIC [17]: 6.09 µM (≈ 7.99 µg/mL)
- MIC [18]: 4 µM (≈ 5.25 µg/mL)
- MIC [19]: 8 µM (≈ 10.5 µg/mL)
- MIC [20]: 3.05 µM (≈ 4 µg/mL)
- MIC [21]: 6.09 µM (≈ 7.99 µg/mL)
- MIC (Staphylococcus aureus): 6.09 µM (≈ 7.99 µg/mL)
- MIC (Staphylococcus aureus MR): 13 µM and 25.1 µM
- MIC [8]: 13 µM and 6.09 µM
- MIC [9]: 25.1 µM (≈ 33 µg/mL)
- MIC [22]: 5.66 µM (≈ 7.42 µg/mL)

Structure (SMILES): CC(C)C[C@H](NC(=O)[C@H](CS)NC(=O)[C@H](CCCCN)NC(=O)[C@H](Cc1ccc(O)cc1)NC(=O)[C@H](CO)NC(=O)[C@H](CCCCN)NC(=O)[C@@H](N)CCCN=C(N)N)C(=O)N[C@@H](Cc1cnc[nH]1)C(=O)N[C@@H](CCCCN)C(=O)N[C@@H](CCCN=C(N)N)C(=O)N[C@@H](CS)C(=O)N[C@@H](CCCN=C(N)N)C(=O)O [RKSYKCLHKRCR]
- MIC [25]: 15.8 µM (≈ 25 µg/mL)
- MIC [26]: 1.98 µM (≈ 3.13 µg/mL)
- MIC [27]: ≥ 74.4 µM
- MIC [28]: 3.96 µM (≈ 6.25 µg/mL)
- MIC [29]: 3.96 µM (≈ 6.25 µg/mL)
- MIC [30]: 30.4 µM (≈ 48 µg/mL)
- MIC [31]: ≥ 54.1 µM
- MIC [32]: 3.96 µM (≈ 6.25 µg/mL)
- MIC [33]: ≥ 37.2 µM
- MIC (Candida glabrata 65C): 3.96 µM (≈ 6.25 µg/mL)

The remaining lines, values ahead:

- MIC (Vibrio alginolyticus): 14.8 µM (≈ 25.6 µg/mL)
- MIC [1]: 14.8 µM (≈ 25.6 µg/mL)
- MIC [2]: 29.7 µM (≈ 51.2 µg/mL)
- MIC (Streptococcus agalactiae): 29.7 µM (≈ 51.2 µg/mL)
- MIC [3]: 3.71 µM (≈ 6.4 µg/mL)
- MIC [4]: 7.42 µM (≈ 12.8 µg/mL)
- MIC (Vibrio vulnificus 204): ≥ 59.3 µM
- MIC [5]: 14.8 µM (≈ 25.6 µg/mL)
Structure (SMILES): CC[C@H](C)[C@H](NC(=O)[C@H](Cc1ccccc1)NC(=O)CNC(C)=O)C(=O)N[C@@H](Cc1ccccc1)C(=O)N[C@@H](Cc1cnc[nH]1)C(=O)N[C@H](C(=O)N[C@H](C(=O)N[C@@H](CCCCN)C(=O)NCC(=O)N[C@@H](CC(C)C)C(=O)N[C@@H](Cc1ccccc1)C(=O)N[C@@H](Cc1cnc[nH]1)C(=O)N[C@@H](C)C(=O)NCC(=O)N[C@@H](CCCCN)C(N)=O)[C@@H](C)CC)[C@@H](C)CC [GFIFHIIKGLFHAGK]

- MIC [23]: 0.45 µM (≈ 0.681 µg/mL)
- MIC [24]: 1.37 µM (≈ 2.07 µg/mL)
Structure (SMILES): CC(C)C[C@H](N)C(=O)N[C@H](C(=O)N[C@@H](Cc1ccc(O)cc1)C(=O)N[C@H]1CSSC[C@@H](C(=O)N[C@H](C(=O)N[C@H](C(=O)N[C@H](C(N)=O)C(C)C)[C@@H](C)O)C(C)C)NC(=O)[C@H](Cc2ccccc2)NC(=O)[C@H](CCCN=C(N)N)NC(=O)[C@H](CCCN=C(N)N)NC(=O)[C@H](CCCN=C(N)N)NC1=O)[C@@H](C)O [LTYCRRRFCVTV]

Reference: DBAASP
